For data set [1], the system named is Enterobacter spp. isolates (Enterobacter aerogenes and E. cloacae, n = 102). The data set is described as follows: organism not typed.
For data set [2] the following is noted: mice.
Text: Male CD-1 mice will be received from an approved vendor and allowed to acclimate for a minimum of two days. Fasting will be not required.
All dosing syringes will be weighed prior to and following dosing. IV doses will be administered as a slow bolus (over ˜30 seconds) via direct venipuncture of a tail vein. All animals will be observed at dosing and each scheduled collection. All abnormalities will be recorded.
Terminal blood samples will be collected via cardiac puncture following inhalation anesthesia.
Sample Processing and Storage: Blood samples will be collected into K2EDTA tubes and stored on wet ice. Whole blood will be processed to plasma by centrifugation (3500 rpm at 5° C.) within 30 minutes of collection. Plasma samples will be split into 2 equal aliquots and each transferred into 96 well plates (matrix tubes) and stored at −80° C. until analysis. Administered doses will be determined gravimetrically.
Prior to extraction, a known concentration of a mass-adjusted internal standard (IS) will be added to assess recovery and allow for quantitation. Purified samples will be further subjected to high-performance liquid chromatography (HPLC) using C18 300 or 130 angstrom columns prior to MS/MS analysis. Multiple charge states will be observed by MS, so MS/MS will be employed to enable multiple reaction monitoring (MRM) analyses to determine the most MRM transitions with the highest signal-to-noise gain. Compound plasma concentrations will be determined by comparing to and compensating with co-purified IS peak intensity and validated calibrated standard curves.
Pharmacokinetic parameters will be calculated using non-compartmental methods as implemented in the Phoenix® WinNonlin® ver. 6.3 comprehensive TK/PK analysis software program (Pharsight Corporation; Mountain View, CA) using an IV infusion model. Pharmacokinetic analysis will be conducted using a 30-minute intravenous infusion time. Therefore, 30 minutes will be added to each sample time point postdose to obtain nominal time for TK analysis. Nominal times and dosage levels will be used for all calculations. Values below the lower limit of quantitation (BLQ) will be assigned a value of zero for the pharmacokinetic calculations. Microsoft® Excel® 2013 will be used for receipt of bioanalytical data, minor formatting, including setting BLQ values to “0”, transfer into WinNonlin® for PK analysis, and calculation of the mean when an approximated value will be excluded. All plasma concentration data from all animals will be included in the analysis. Graphical presentations will be performed using Microsoft® Excel® 2013.

Where two headings read alike, the source gives them in different places. Peptide text beside a SMILES is read from it.

As a reminder, the MRT last is the average time that molecules of a dose stay in the body. Broadly, the Vss is the apparent volume that relates the amount in the body to the concentration in plasma or blood. A lower Vss goes with confinement near the circulation. Broadly, the Vz is a proportionality between amount in the body and measured concentration, not a real space. Higher therefore signals extensive tissue distribution. Broadly, the MIC50 is an inhibitory concentration at the 50% level, which refers to growth in some studies and to a panel of isolates in others. A high value points to weaker potency. One may read the MIC90 as the lowest concentration that inhibits either 90% of growth or 90% of the strains tested, depending on the study. A lower MIC90 goes with greater potency.

With `CC(C)[C@H](NC(=O)[C@H](Cc1c[nH]c2ccccc12)NC(=O)[C@H](CCCNC(=N)N)NC(=O)[C@H](CCCNC(=N)N)NC(=O)[C@@H](NC(=O)[C@@H](NC(=O)[C@H](CCCNC(=N)N)NC(=O)[C@@H](NC(=O)[C@@H](NC(=O)[C@H](CCCNC(=N)N)NC(=O)[C@H](CCCNC(=N)N)NC(=O)[C@H](Cc1c[nH]c2ccccc12)NC(=O)[C@@H](NC(=O)[C@H](CCCNC(=N)N)NC(=O)[C@H](CCCNC(=N)N)NC(=O)[C@@H](NC(=O)[C@H](CCCNC(=N)N)NC(=O)[C@H](CCCNC(=N)N)NC(=O)[C@@H](NC(=O)[C@H](Cc1c[nH]c2ccccc12)NC(=O)[C@H](CCCNC(=N)N)NC(=O)[C@@H](N)CCCNC(=N)N)C(C)C)C(C)C)C(C)C)C(C)C)C(C)C)C(C)C)C(C)C)C(=O)N[C@@H](CCCNC(=N)N)C(=O)N[C@@H](CCCNC(=N)N)C(N)=O` [SEQ ID NO: 1] (H-RRWVRRVRRVWRRVVRVVRRWVRR-NH2), the “Mode (MIC)” value in data set [1] came to 16 µg/mL. Also, in data set [2] (3 mg/kg IV), the AUCinf is less than 3500 ng·h/mL, the CL is roughly 5 mL/min/kg, the Extrapolated is listed as roughly 0.5% and the MRT last was roughly 0.5 h. In data set [2] (3 mg/kg IV), the T1/2 is roughly 8 h, the volume of distribution (Vss) was roughly 0.2 L/kg and the Vz is roughly 3 L/kg. Also, in data set [2] (15 mg/kg IV), the AUCinf_D was found to be 3589 kg·ng·h/mL/ng and the Extrapolated is recorded as 0.49%.
Take Colistin [reference compound]: in data set [1] (Enterobacter spp. (n = 102)), the MIC50 was found to be 0.12 µg/mL, the MIC90 amounted to 0.25 µg/mL and the “Mode (MIC)” value amounted to 0.12 µg/mL. The “% R (percent of isolates resistant)” value in data set [1] (Enterobacter spp. (n = 102), CLSI breakpoints, colistin EUCAST) stood at 5.8%.
